{"source": "patent US20200199640A1", "about": "“PROCESS FOR OBTAINING […] A HOST CELL COMPRISING POLYNUCLEOTIDES ENCODING FOR PO[…] IN THE OMPHALOTIN BIOSYNTHESIS” (TECHNISCHE UNIVERSITÄT BERLIN, priority 2017, published 2020)", "origin": "cited, not measured here", "key": {"[1]": {"test_system": "Meloidogyne incognita", "details": "literature statement (A. Mayer et al, Pestic. Sci. 1999, 55, 27-30)"}, "[2]": {"details": "literature statement (A. Mayer et al, Pestic. Sci. 1999, 55, 27-30)"}, "[3]": {"details": "literature statement (A. Mayer et al, Pestic. Sci. 1999, 55, 27-30)", "remark": "listed apart in the source"}, "[4]": {"details": "literature statement (A. Mayer et al, Pestic. Sci. 1999, 55, 27-30)", "remark": "listed apart in the source"}}, "note": "Non-standard residues stand in square brackets, D forms with d. Residues, ends and D or L forms follow the SMILES beside them. ξ: configuration not given here. NMeIle(3ξ) = CCC(C)[C@H](NC)C(=O)O; Ile(3ξ) = CCC(C)[C@H](N)C(=O)O; NMeV = CN[C@H](C(=O)O)C(C)C; Sar = CNCC(=O)O"}
{"smiles": "CCC(C)[C@@H]1NC(=O)[C@H](C(C)C)N(C)C(=O)[C@H](Cc2c[nH]c3ccccc23)NC(=O)CN(C)C(=O)[C@H](C(C)CC)N(C)C(=O)[C@H](C(C)C)NC(=O)CN(C)C(=O)[C@H](C(C)CC)N(C)C(=O)[C@H](C(C)C)N(C)C(=O)CN(C)C(=O)[C@H](C(C)C)N(C)C(=O)[C@H](C(C)C)N(C)C1=O", "note": "(stereo partly shown) [Omphalotin A] (cyclo([Ile(3ξ)][NMeV][NMeV][Sar][NMeV][NMeIle(3ξ)][Sar]V[NMeIle(3ξ)][Sar]W[NMeV]))", "values": [{"measurement": "activity against the plant pathogen nematode Meloidogyne incognita", "setting": "[1]", "value": "strong and selective activity"}, {"measurement": "phytotoxic activity", "setting": "[2]", "value": "no further phytotoxic, antibacterial or antifungal activities"}, {"measurement": "antibacterial activity", "setting": "[3]", "value": "no further phytotoxic, antibacterial or antifungal activities"}, {"measurement": "antifungal activity", "setting": "[4]", "value": "no further phytotoxic, antibacterial or antifungal activities"}]}
